This is an account of results in patent US20040191241A1, “Antigen with haptenic mannitol epitopes and a method of preparing antibodies specific to D-mannitol” (COUNCIL OF SCIENTIFIC AND INDUSTRIAL RESEARCH, priority 2003, published 2004).

Assay [1] has as its system hapten affinity-purified D-mannitol-specific antibody. The assay can be described thus: ELISA inhibition: specificity and cross-reactivity of the hapten affinity-purified antibody, D-mannitol-KLH coated wells. It is filed as binding, rabbit. The following applies: for Inhibition in ELISA (in words): comparison among inhibitors; for IC50: read-out: IC50 (concentration required for 50% inhibition in ELISA). The procedure: FIG. 5 depicts specificity of the purified D-mannitol-specific antibody determined by ELISA inhibition. D-Mannitol-KLH conjugate (10 ng/well) was used for coating. The purified antibody (at 1:100 dilution) was preincubated with various inhibitors at different concentrations at 37° C. for 1 h before adding to the coated wells.
FIG. 6 depicts stereo specificity of the purified D-mannitol-specific antibody determined by ELISA inhibition. As L-mannitol is not available commercially, L-mannitol-BSA conjugate (prepared using L-mannose) was used as inhibitor and the inhibition was compared with that of D-mannitol-BSA conjugate.
To check for the formation of hapten-specific antibodies the antiserum was analyzed by non-competitive ELISA using the coated antigen format. The titer of the antiserum was determined by measuring the binding of serial dilutions of antiserum to coated mannitol-KLH conjugate. Flat bottom polystyrene microtiter wells were coated with mannitol-KLH conjugate at 1000, 100, 50, 10, and 1 ng per well in carbonate-bicarbonate buffer, pH 9.6 by incubating at 4° C. overnight. The wells were washed thrice between steps using PBS containing 0.05% Tween 20 (PBS-T). Blocking was done using 0.5% gelatin in PBS-T (blocking buffer) at 37° C. for 30 min. Antiserum diluted in blocking buffer (1:10, 1:100, 1:1000, 1:10000, 1:25000, 1:50000, 1:75000; 1:100000, 1:200000, 1:400000) was added (100 μL/well) and incubated at 37° C. for 2 h. Mouse anti-rabbit IgG-alkaline phoshatase secondary antibody (1:5000 dilution in blocking buffer, 100 μL/well) was added and incubated at 37° C. for 1 h. Color development was done using p-nitrophenyl phosphate (1 mg/mL, 100 μL/well) in diethanolamine buffer, pH 9.8, at 37° C. for 30 min. The reaction was stopped by adding 3 M NaOH (40 μL/well) and the absorbance at 405 nm was read in an ELISA reader.
The hapten affinity-purified D-mannitol-specific antibody was used for ELISA experiments to obtain the binding curves using D-mannitol-KLH conjugate for coating, and to study the specificity and cross-reactivity by ELISA inhibition experiments. Here, purified antibody was preincubated with various concentrations of inhibitors at 37° C. for 1 h before adding to coated microtiter wells. Other steps were as described under ‘Titration of antiserum’. Percent cross-reactivity for various inhibitors was calculated using the formula: […]
On the technique in general: ELISA stands for enzyme-linked immunosorbent assay.

The subject of assay [2] is mannitol-specific mast cell-bound human IgE. As to the kind of experiment: Skin prick test (SPT) in an allergic subject sensitized to mannitol. It is filed as in vivo. The following applies: for Wheal diameter / Flare diameter: SPT, free compounds at 0.1%; for Wheal diameter: first figure of wheal/flare; for Flare diameter: second figure of wheal/flare. An excerpt:
A D-mannitol-BSA and D-mannitol-KLH conjugate was used for skin prick test (SPT) in a mannitol-allergic subject, after obtaining Institutional Ethics Committee (IEC) clearance, and informed consent. D-Mannitol and its conjugates with BSA and KLH produced positive test whereas, D-mannose and control BSA and control KLH gave negative test (Table 2). L-Mannitol BSA conjugate was negative in SPT. All these samples were negative in SPT in 10 normal subjects.

[3] abbreviates: (IC50 for D-mannitol ÷ IC50 for test compound) × 100.
The mark [4] stands for this setting: free sugars/sugar alcohols as competitor, D-mannitol-KLH 10 ng/well coating, antibody 1:100, preincubated 37° C. 1 h.

Read-outs that look alike come from different tables or passages of the source.

Turning to `OC[C@@H](O)[C@@H](O)[C@H](O)[C@@H](O)CO` [D-Glucitol], the Percent cross-reactivity is 8.8% in assay [1] (setting [3]) and approximately 9% in assay [1] ((IC50 for D-mannitol ÷ IC50 for test compound) × 100, listed as D-glucitol (sorbitol)). Moreover, the “Inhibition in ELISA (in words)” value in assay [1] was “higher compared to that by meso-erythritol and D-mannose”. The IC50 in assay [1] (setting [4]) is 60 mM.

Take `OC[C@@H](O)[C@@H](O)[C@H](O)[C@H](O)CO` [D-Mannitol]: the Percent cross-reactivity in assay [1] (setting [3]) came to 100.0%. Further, the “Inhibition in ELISA (in words)” value in assay [1] is given as “maximum inhibition”. Besides, the IC50 in assay [1] (setting [4]) turned out to be 5.25 mM. In assay [2], the “SPT result (positive/negative)” value is listed as “positive”, the Wheal diameter turned out to be 5 mm and the Flare diameter was 25 mm.

In assay [1] (setting [3]), `O=C[C@@H](O)[C@@H](O)[C@H](O)[C@H](O)CO` [D-Mannose] displayed a Percent cross-reactivity of 4.9%. Besides, in assay [2], the “SPT result (positive/negative)” value is on record as “negative”, the Wheal diameter turned out to be 1 mm and the Flare diameter stood at 0 mm.

For the molecule `NCCc1c[nH]cn1` [Histamine base], in assay [2], the Wheal diameter is on record as 6 mm and the Flare diameter is recorded as 30 mm.

In turn, `NCCCC[C@H](N)C(=O)O` [L-lysine] came in with a Percent cross-reactivity in assay [1] (setting [3]) of 2%.

Consider `OCC(O)C(O)CO` (stereo not drawn) [meso-Erythritol], for which the Percent cross-reactivity in assay [1] (setting [3]) is reported as 4.9%.

As to “Control BSA: BSA incubated under the conjugation conditions, excluding D-mannose”, in assay [2], the “SPT result (positive/negative)” value is “negative”, the Wheal diameter was determined as 1 mm and the Flare diameter is given as 0 mm.

Consider “N-(1-deoxy-D-mannitol-1-yl)n-carrier [D-Mannitol-BSA conjugate]”, for which the IC50 in assay [1] (BSA conjugates as inhibitor (stereospecificity, FIG. 6)) was determined as 0.00064 mM. The same molecule had a Percent cross-reactivity in assay [1] (conjugate inhibitors, relative to D-mannitol-BSA conjugate) of 100.00%. Besides, in assay [2], the “SPT result (positive/negative)” value is listed as “positive”, the Wheal diameter is listed as 4 mm and the Flare diameter stood at 30 mm.

As to “N-(1-deoxy-D-mannitol-1-yl)n-carrier [D-Mannitol-KLH conjugate]”, in assay [2], the “SPT result (positive/negative)” value is “positive”, the Wheal diameter stood at 4 mm and the Flare diameter was 25 mm.
